Columns and labels:
Test in all cases: radiometric filter-binding kinase assay, Kinase HotSpot
Settings in all cases: compound 0.5 µM; ATP 10 µM
[1] = molecular target: ACVR1 (human) (UniProt Q04771)
[2] = molecular target: AURKC (human) (UniProt Q9UQB9)
[3] = molecular target: CAMK2G (human) (UniProt Q13555)
[4] = molecular target: CDC42BPA (human) (UniProt Q5VT25)
[5] = molecular target: CDK2 CCNA2 (human) (UniProt P24941+P20248)
[6] = molecular target: CDK2 CCNE1 (human) (UniProt P24941+P24864)
[7] = molecular target: CHEK2 (human) (UniProt O96017)
[8] = molecular target: CLK4 (human) (UniProt Q9HAZ1)
[9] = molecular target: CSNK1G2 (human) (UniProt P78368)
[10] = molecular target: DAPK2 (human) (UniProt Q9UIK4)
[11] = molecular target: EPHA3 (human) (UniProt P29320)
[12] = molecular target: EPHA6 (human) (UniProt Q9UF33)
[13] = molecular target: FES (human) (UniProt P07332)
[14] = molecular target: FGFR4 (human) (UniProt P22455)
[15] = molecular target: HIPK1 (human) (UniProt Q86Z02)
[16] = molecular target: HIPK3 (human) (UniProt Q9H422)
[17] = molecular target: INSR (human) (UniProt P06213)
[18] = molecular target: INSRR (human) (UniProt P14616)
[19] = molecular target: LRRK2 (human) (UniProt Q5S007)
[20] = molecular target: MAP3K5 (human) (UniProt Q99683)
[21] = molecular target: MAPK3 (human) (UniProt P27361)
[22] = molecular target: MARK4 (human) (UniProt Q96L34)
[23] = molecular target: MELK (human) (UniProt Q14680)
[24] = molecular target: MKNK2 (human) (UniProt Q9HBH9)
[25] = molecular target: MYLK2 (human) (UniProt Q9H1R3)
[26] = molecular target: NEK6 (human) (UniProt Q9HC98)
[27] = molecular target: PAK3 (human) (UniProt O75914)
[28] = molecular target: PDGFRB (human) (UniProt P09619)
[29] = molecular target: PKN1 (human) (UniProt Q16512)
[30] = molecular target: PRKACG (human) (UniProt P22612)
[31] = molecular target: ROCK2 (human) (UniProt O75116)
[32] = molecular target: RPS6KA6 KD1 KD2 (human) (UniProt Q9UK32)
[33] = molecular target: STK39 (human) (UniProt Q9UEW8)
[34] = molecular target: TEK (human) (UniProt Q02763)
[35] = molecular target: TGFBR1 (human) (UniProt P36897)
[36] = molecular target: TLK2 (human) (UniProt Q86UE8)
[37] = molecular target: TNK2 (human) (UniProt Q07912)
[38] = molecular target: ULK1 (human) (UniProt O75385)
[39] = molecular target: HIPK2 (human) (UniProt Q9H2X6)
[40] = molecular target: KDR (human) (UniProt P35968)

Sequence of MKNK2 (human) (Q9HBH9 whole entry, looked up): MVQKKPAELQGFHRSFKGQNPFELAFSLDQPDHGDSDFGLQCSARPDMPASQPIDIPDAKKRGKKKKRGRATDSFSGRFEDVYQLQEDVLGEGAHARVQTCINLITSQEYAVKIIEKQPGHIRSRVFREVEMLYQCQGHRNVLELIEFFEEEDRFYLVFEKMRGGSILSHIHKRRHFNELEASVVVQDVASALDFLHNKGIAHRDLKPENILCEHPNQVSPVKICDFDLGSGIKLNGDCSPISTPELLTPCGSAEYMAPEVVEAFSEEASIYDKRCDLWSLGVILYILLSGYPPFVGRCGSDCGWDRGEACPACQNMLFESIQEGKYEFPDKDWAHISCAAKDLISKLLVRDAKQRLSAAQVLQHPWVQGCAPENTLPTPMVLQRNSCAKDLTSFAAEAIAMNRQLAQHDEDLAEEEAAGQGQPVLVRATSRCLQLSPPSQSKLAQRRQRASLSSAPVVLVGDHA
Sequence of RPS6KA6 KD1 KD2 (human) (Q9UK32 whole entry, looked up): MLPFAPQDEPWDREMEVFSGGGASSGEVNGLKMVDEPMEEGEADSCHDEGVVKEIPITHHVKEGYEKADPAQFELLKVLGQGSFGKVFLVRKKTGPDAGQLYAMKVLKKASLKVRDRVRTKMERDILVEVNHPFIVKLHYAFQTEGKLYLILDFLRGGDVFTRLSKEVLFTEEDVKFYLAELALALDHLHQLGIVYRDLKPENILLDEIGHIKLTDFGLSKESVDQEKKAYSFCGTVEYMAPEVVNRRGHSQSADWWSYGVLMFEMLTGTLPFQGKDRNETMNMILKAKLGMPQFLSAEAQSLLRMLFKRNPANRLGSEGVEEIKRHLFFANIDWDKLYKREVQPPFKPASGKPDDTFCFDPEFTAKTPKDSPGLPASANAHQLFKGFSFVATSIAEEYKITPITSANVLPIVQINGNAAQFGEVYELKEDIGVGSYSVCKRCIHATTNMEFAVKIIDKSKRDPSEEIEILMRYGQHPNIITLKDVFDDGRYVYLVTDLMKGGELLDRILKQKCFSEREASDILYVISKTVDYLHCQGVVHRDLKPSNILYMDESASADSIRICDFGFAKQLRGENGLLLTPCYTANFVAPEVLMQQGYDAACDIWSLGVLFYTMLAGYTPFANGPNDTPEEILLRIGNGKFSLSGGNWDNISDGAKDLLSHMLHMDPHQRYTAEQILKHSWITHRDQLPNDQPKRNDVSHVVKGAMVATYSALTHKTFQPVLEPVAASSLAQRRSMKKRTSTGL
Sequence of EPHA6 (human) (Q9UF33 whole entry, looked up): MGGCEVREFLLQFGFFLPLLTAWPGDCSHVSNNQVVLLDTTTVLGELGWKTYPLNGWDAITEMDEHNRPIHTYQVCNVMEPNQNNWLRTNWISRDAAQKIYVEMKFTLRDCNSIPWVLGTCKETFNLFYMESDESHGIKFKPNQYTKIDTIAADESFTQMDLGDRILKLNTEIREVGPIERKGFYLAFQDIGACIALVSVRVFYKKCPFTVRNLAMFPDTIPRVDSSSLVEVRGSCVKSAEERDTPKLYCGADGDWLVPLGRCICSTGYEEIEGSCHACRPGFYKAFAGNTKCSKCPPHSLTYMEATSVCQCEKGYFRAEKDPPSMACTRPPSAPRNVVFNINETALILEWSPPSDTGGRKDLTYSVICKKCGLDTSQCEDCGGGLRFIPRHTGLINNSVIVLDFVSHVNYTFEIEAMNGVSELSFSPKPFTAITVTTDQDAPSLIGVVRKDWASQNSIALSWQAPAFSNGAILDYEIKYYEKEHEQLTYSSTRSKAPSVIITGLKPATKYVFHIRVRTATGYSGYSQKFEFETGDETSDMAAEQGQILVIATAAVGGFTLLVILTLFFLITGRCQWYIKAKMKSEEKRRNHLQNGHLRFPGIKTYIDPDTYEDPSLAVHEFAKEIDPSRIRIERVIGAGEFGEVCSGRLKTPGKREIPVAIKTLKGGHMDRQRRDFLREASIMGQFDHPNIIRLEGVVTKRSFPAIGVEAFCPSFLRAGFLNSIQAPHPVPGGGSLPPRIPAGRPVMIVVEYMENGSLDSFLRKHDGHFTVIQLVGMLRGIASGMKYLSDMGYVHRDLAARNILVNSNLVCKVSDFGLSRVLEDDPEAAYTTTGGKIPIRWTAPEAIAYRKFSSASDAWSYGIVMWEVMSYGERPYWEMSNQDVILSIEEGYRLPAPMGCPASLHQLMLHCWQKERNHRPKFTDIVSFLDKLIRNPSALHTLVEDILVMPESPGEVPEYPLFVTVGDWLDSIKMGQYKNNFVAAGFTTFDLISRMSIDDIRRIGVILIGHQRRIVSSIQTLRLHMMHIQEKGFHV
Sequence of MAPK3 (human) (P27361 whole entry, looked up): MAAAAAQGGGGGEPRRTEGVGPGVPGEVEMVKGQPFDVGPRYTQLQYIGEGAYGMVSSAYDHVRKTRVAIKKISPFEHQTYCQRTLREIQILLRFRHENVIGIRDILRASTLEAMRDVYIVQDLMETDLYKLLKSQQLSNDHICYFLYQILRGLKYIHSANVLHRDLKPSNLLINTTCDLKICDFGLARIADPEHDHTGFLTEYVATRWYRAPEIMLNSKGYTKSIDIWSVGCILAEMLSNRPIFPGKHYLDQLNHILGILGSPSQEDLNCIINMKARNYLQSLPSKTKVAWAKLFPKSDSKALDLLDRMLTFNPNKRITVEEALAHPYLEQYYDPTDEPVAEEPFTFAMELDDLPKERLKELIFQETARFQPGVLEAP
Sequence of INSRR (human) (P14616 whole entry, looked up): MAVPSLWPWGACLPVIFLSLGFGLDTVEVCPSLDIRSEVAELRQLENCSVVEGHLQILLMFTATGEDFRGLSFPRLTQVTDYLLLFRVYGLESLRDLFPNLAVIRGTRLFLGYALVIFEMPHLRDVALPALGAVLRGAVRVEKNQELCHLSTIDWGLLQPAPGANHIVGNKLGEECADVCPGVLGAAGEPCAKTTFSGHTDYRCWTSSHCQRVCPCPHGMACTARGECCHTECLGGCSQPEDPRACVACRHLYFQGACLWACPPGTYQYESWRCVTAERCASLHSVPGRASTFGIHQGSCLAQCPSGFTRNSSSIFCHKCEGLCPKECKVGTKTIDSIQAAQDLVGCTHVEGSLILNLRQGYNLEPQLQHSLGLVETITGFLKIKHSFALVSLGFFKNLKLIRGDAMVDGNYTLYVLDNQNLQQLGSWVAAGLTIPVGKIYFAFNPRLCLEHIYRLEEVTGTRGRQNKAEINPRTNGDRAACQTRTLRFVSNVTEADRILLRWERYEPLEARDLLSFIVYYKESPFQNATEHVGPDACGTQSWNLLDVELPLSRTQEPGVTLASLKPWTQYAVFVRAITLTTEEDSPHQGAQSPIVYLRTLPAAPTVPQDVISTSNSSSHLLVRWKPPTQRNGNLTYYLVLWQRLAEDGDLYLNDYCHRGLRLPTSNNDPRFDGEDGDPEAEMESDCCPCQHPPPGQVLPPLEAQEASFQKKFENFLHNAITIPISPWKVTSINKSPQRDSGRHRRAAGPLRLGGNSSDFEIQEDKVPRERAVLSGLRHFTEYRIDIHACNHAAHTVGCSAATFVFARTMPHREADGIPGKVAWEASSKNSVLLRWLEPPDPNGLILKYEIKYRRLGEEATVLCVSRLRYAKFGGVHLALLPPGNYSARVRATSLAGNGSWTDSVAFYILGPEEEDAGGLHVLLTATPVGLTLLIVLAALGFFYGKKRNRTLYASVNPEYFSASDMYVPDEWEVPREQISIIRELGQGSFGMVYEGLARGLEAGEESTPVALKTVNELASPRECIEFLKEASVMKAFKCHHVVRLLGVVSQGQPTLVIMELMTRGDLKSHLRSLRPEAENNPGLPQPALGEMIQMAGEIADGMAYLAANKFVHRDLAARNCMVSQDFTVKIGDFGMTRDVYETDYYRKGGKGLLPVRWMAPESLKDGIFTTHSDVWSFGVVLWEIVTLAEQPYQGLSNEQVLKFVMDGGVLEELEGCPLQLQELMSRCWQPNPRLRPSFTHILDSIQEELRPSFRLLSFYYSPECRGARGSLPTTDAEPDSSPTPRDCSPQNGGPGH
Sequence of DAPK2 (human) (Q9UIK4 whole entry, looked up): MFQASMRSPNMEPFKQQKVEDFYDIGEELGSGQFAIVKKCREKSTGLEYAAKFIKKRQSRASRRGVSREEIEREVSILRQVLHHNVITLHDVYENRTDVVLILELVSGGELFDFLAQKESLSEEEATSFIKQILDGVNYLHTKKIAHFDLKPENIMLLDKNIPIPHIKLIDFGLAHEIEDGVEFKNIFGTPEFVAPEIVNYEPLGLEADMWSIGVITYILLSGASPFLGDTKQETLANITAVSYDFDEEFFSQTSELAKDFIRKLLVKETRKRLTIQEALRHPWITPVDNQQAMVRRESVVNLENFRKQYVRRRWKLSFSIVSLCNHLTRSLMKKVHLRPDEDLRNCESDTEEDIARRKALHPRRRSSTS
Sequence of AURKC (human) (Q9UQB9 whole entry, looked up): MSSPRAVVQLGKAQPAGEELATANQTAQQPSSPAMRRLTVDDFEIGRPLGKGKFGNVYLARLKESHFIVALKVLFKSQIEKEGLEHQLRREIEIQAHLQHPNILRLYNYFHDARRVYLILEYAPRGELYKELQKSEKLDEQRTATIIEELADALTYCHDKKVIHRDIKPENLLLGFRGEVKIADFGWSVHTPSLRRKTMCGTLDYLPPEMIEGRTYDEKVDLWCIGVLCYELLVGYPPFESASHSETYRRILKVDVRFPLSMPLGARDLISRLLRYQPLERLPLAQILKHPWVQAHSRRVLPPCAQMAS
Sequence of PRKACG (human) (P22612 whole entry, looked up): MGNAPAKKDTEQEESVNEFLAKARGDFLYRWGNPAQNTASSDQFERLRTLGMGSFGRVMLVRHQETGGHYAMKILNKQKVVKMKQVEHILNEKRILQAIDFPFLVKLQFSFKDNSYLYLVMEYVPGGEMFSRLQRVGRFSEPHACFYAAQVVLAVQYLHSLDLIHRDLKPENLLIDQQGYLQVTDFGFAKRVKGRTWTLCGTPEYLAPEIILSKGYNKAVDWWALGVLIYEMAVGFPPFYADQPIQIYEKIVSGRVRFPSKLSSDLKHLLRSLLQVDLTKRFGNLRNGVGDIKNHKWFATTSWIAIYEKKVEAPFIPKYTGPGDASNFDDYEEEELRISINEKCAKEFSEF

| SMILES | residual activity [1] [%] | residual activity [2] [%] | residual activity [3] [%] | residual activity [4] [%] | residual activity [5] [%] | residual activity [6] [%] | residual activity [7] [%] | residual activity [8] [%] | residual activity [9] [%] | residual activity [10] [%] | residual activity [11] [%] | residual activity [12] [%] | residual activity [14] [%] | residual activity [15] [%] | residual activity [16] [%] | residual activity [17] [%] | residual activity [18] [%] | residual activity [19] [%] | residual activity [20] [%] | residual activity [21] [%] | other results |
| --- | --- | --- | --- | --- | --- | --- | --- | --- | --- | --- | --- | --- | --- | --- | --- | --- | --- | --- | --- | --- | --- |
| CNC(=O)c1cc(Oc2ccc(NC(=O)Nc3ccc(Cl)c(C(F)(F)F)c3)cc2)ccn1 | 98.7 | 106 | 108 | 85.2 | 99.7 | 98.2 | 102 | 95.2 | 88.9 | 111 | 95.5 | 42 | 104 | 99.7 | 85.7 | 106 | 104 | 106 | 103 | 105 | residual activity [13]: 104%; residual activity [22]: 98.1%; residual activity [23]: 93.6%; residual activity [24]: 70.3%; residual activity [25]: 96.1%; residual activity [26]: 105%; residual activity [27]: 103%; residual activity [28]: 12%; residual activity [29]: 106%; residual activity [30]: 100%; residual activity [31]: 101%; residual activity [32]: 97.3%; residual activity [33]: 95.7%; residual activity [34]: 104%; residual activity [35]: 94.1%; residual activity [36]: 84.8%; residual activity [37]: 97.6%; residual activity [38]: 94.3% |
| O=C1NC(=O)C(c2cn(CCCn3ccnc3)c3ccccc23)=C1Nc1ccccc1 | 94.4 | 89.8 | 90.9 | 95.2 | 83.4 | 81.8 | 88.3 | 38.9 | 95.4 | 104 | 102 | 106 | 74.6 | 102 | 102 | 84.4 | 101 | 43.6 | 105 | 103 | residual activity [13]: 103%; residual activity [39]: 87.6%; residual activity [40]: 90.2%; residual activity [22]: 92.6%; residual activity [23]: 101%; residual activity [24]: 87.2%; residual activity [25]: 95.7%; residual activity [26]: 93.6%; residual activity [27]: 100%; residual activity [28]: 76.5%; residual activity [29]: 22.7%; residual activity [30]: 117%; residual activity [31]: 100%; residual activity [32]: 2%; residual activity [33]: 99.2%; residual activity [34]: 92.3%; residual activity [35]: 101%; residual activity [36]: 74.1%; residual activity [37]: 65.9%; residual activity [38]: 90.1% |
| Oc1cccc(-c2nc(N3CCOCC3)c3oc4ncccc4c3n2)c1 | 105 | 98.1 | 100 | 94.5 | 104 | 85.5 | 90.4 | 81.5 | 88.1 | 117 | 93.7 | 79 | 102 | 101 | 93.8 | 98.6 | 114 | 101 | 101 | 94.1 | residual activity [13]: 98.8%; residual activity [39]: 102%; residual activity [40]: 85.9%; residual activity [22]: 93.4%; residual activity [23]: 75.5%; residual activity [24]: 92.6%; residual activity [25]: 99%; residual activity [26]: 106%; residual activity [27]: 97.5%; residual activity [28]: 99.2%; residual activity [29]: 101%; residual activity [30]: 101%; residual activity [31]: 94.5%; residual activity [32]: 98.2%; residual activity [33]: 105%; residual activity [34]: 87.7%; residual activity [35]: 95%; residual activity [36]: 102%; residual activity [37]: 89.6%; residual activity [38]: 113% |
| CO[C@H]1CC2CC[C@@H](C)[C@@](O)(O2)C(=O)C(=O)N2CCCC[C@H]2C(=O)OC([C@H](C)C[C@@H]2CC[C@@H](O)[C@H](OC)C2)CC(=O)[C@H](C)/C=C(\C)[C@@H](O)[C@@H](OC)C(=O)[C@H](C)C[C@H](C)/C=C/C=C/C=C/1C (stereo not given in full) | 94.6 | 95.6 | 101 | 95.6 | 101 | 91.3 | 99 | 116 | 94.8 | 112 | 109 | 99 | 76.6 | 99.1 | 107 | 90.3 | 102 | 98.7 | 107 | 104 | residual activity [13]: 108%; residual activity [39]: 88%; residual activity [40]: 98.1%; residual activity [22]: 99.1%; residual activity [23]: 97.8%; residual activity [24]: 88.1%; residual activity [25]: 103%; residual activity [26]: 97.7%; residual activity [27]: 102%; residual activity [28]: 108%; residual activity [29]: 96.2%; residual activity [30]: 113%; residual activity [31]: 108%; residual activity [32]: 118%; residual activity [33]: 97.9%; residual activity [34]: 97.6%; residual activity [35]: 99.5%; residual activity [36]: 94.4%; residual activity [37]: 98.5%; residual activity [38]: 87.9% |
| Cc1ccc(Nc2nccc(N(C)c3ccc4c(C)n(C)nc4c3)n2)cc1S(N)(=O)=O | 104 | 70.9 | 106 | 85.4 | 96.1 | 96.4 | 95.1 | 91.7 | 96.9 | 93 | 94.1 | 80 | 68.3 | 97.6 | 103 | 107 | 96.1 | 109 | 102 | 102 | residual activity [39]: 105%; residual activity [22]: 98%; residual activity [23]: 87.5%; residual activity [24]: 107%; residual activity [26]: 96.1%; residual activity [27]: 90.6%; residual activity [28]: 40.4%; residual activity [29]: 102%; residual activity [30]: 111%; residual activity [31]: 91.1%; residual activity [32]: 96.8%; residual activity [33]: 95.9%; residual activity [34]: 69.3%; residual activity [35]: 103%; residual activity [36]: 85.6%; residual activity [37]: 90.2%; residual activity [38]: 97.3% |

— the kinase profiling compilation of Christmann-Franck et al. (2016)
